This passage reports IC50 results from article PMC8710297, “Identification of potent SENP1 inhibitors that inactivate SENP1/JAK2/STAT signaling pathway and overcome platinum drug resistance in ovarian cancer” (Clinical and Translational Medicine, 2021).

Usually IC50 stands for the concentration at which inhibition is half-maximal.

Experiment [1] has as its target T1, SENP1 (Homo sapiens, UniProt Q9P0U3).
T1 sequence (Q9P0U3 1-644): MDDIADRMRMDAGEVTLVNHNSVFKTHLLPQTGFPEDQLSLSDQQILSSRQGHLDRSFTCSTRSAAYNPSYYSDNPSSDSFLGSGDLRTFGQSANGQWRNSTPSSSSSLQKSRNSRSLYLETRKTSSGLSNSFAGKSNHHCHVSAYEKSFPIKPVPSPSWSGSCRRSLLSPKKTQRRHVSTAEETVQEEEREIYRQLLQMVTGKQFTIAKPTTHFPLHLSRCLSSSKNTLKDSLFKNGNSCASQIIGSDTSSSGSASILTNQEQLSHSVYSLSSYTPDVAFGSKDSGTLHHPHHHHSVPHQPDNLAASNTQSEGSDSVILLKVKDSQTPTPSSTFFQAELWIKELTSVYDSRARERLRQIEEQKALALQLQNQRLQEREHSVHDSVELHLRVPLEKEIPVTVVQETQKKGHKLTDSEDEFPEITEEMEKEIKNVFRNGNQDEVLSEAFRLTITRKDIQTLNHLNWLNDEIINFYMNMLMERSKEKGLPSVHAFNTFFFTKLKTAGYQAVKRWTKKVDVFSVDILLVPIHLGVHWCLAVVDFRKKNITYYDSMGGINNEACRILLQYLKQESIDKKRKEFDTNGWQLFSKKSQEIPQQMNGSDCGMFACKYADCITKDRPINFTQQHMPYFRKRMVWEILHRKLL
Kind of experiment: SENP1 activity in cells (SUMOylated JAK2, Western blot quantification). The format is cell-based. The arrangement: endogenous in cells; host or cells: IGROV1 CR cells. The note with it: IGROV1 CR cells, 48 h. As to the method:
(§1) (A) Collection of Momordin Ic (Mc) natural compound analogues. […] Cell proliferation was determined by the sulforhodamine B (SRB) assay. […] IGROV1 CR cells were incubated with Mc at indicated concentrations for 48 h and then harvested for Western blot for indicated proteins. […] IGROV1 CR cells were incubated with UA and then treated as in C. […] Intensity of SUMOylated JAK2 was measured by Quantity One software. […] Recombinant His‐JAK2 was SUMOylated by in vitro SUMOylation assay, and then SUMOylated JAK2 proteins were incubated with or without recombinant GST‐SENP1 together with Mc for 3 h. […] In vitro assay was performed as in (F).
(A) Synthesis of UA derivatives. Reagents and conditions: (i) Ac2O, DMAP, Pyridine, r.t.; (ii) Oxalyl chloride, CH2Cl2, r.t., overnight; (iii) amines, TEA, r.t., 0.5–4 h; (iv) NaOH a.q., MeOH/THF, r.t.; (v) amines, MeOH, reflux; (vi) K2CO3, DMF, 60°C. The detail of synthesis was included in supplemental materials. […] (C) IGROV1 CR cells treated with indicated UAMMC9 for 48 h. Cells were then harvested and lysates were resolved on sodium dodecyl sulphate‐polyacrylamide gel electrophoresis, followed by immunoblotting for indicated proteins. (D) Cellular thermal shift assay to examine the interaction of UAMMC9 with SENP1. IGROV1 CR cells were incubated with DMSO or UAMMC9 for 4 h before treatment as in Figure 2A. (E) In vitro thermal shift assay to analyze the interactions of UAMMC9 with purified GST‐SENP1(C603A). Stability of SENP1(C603A) was analyzed by using Western blot against SENP1 antibody. […] Surface of hydrophobic amino acid residues in catalytic cleft was shown in yellow and that of hydrophilic amino acid residues was shown in magenta. Key amino acid residues were highlighted. […] The pictures were generated by Chimera.
In general terms: In western blotting, separated proteins are transferred to a membrane and probed.

In experiment [2] the target is T1, SENP1. Put plainly: In vitro deSUMOylation assay (SUMOylated His-JAK2 + recombinant GST-SENP1). Format: biochemical. The note with it: read-out: SENP1 inhibition in vitro IC50. As to the method: as §1, with “(F). […]” for “(F).”
Where [3] appears, read: intensity of SUMOylated JAK2, read-out: SENP1 inhibition in cells IC50.
[4] abbreviates: recombinant GST-SENP1, SUMOylated His-JAK2, 3 h.

Structures are written as SMILES. “And” between values parts separate entries of the source, which are not always exact repeats. Equal entries are not always repeated.

Regarding `CC1(C)CC[C@]2(C(=O)O)CC[C@]3(C)C(=CC[C@@H]4[C@@]5(C)CC[C@H](O[C@@H]6O[C@H](C(=O)O)[C@@H](O)[C@H](O[C@@H]7OC[C@@H](O)[C@H](O)[C@H]7O)[C@H]6O)C(C)(C)[C@@H]5CC[C@]43C)[C@@H]2C1` [Mc, Momordin Ιc], the results for the IC50 at SENP1 [1] (setting [3]) and on SENP1 [2] (setting [4]) were 31.8 µM and 19.9 µM, respectively.

Take `C[C@H]1[C@H](C)CC[C@]2(C(=O)NCC(=O)N(C)CCO)CC[C@]3(C)C(=CC[C@@H]4[C@@]5(C)CC[C@H](O)C(C)(C)[C@@H]5CC[C@]43C)[C@H]12` [UAMMC9]: the IC50 on SENP1 [1] (SUMOylated JAK2, read-out: SENP1 activity in cells IC50) is 0.15 µM and 0.151 µM; on SENP1 [2] (recombinant SENP1, SUMOylated JAK2), 0.196 µM.

On to `C[C@H]1[C@H](C)CC[C@]2(C(=O)O)CC[C@]3(C)C(=CC[C@@H]4[C@@]5(C)CC[C@H](O)C(C)(C)[C@@H]5CC[C@]43C)[C@H]12` [UA, ursolic acid, reference compound], for which the IC50 on SENP1 [1] (setting [3]) came out at 0.24 µM; at SENP1 [2] (setting [4]) it was 0.0064 µM.
